For this assay, the system named is H4 cells, PrP 5'UTR luciferase reporter translation. The assay can be described thus: inhibitors of PrP 5'UTR-driven reporter translation, dose response, luminescence (AID 1994).

Records with an inconclusive call do not appear. The source made the active and inactive calls. The rule behind the calls is not given here. Bounds are passed on as bounds.

The EC50 is the concentration at which the effect is half-maximal. For `C#CCOCCOCCOCCNc1nc(N2CCN(C(=O)CCCCCCCCCCNC(=O)[C@H](CO)n3cc(CCCSC)nn3)CC2)nc(N2CCN(C(=O)CCCCCCCCCCNC(=O)[C@H](CCCCN)n3cc(C[C@@H](C)CC)nn3)CC2)n1`, the EC50 was > 12 µM (inactive).
The result for `C=C(C=O)CC1CC(O)[C@]2(C)OC3CC4OC5C[C@]6(C)O[C@]7(C)CCC8OC9C[C@]%10(C)OC%11C(C)=CC(=O)OC%11CC%10OC9C[C@@H](C)C8OC7CC6O[C@]5(C)CC5OC5C4OC3CC2O1` (some centres not stated) reads 1.58 µM.

The record behind these values is PubChem BioAssay AID1994 (Broad Institute, 2009).
